Reference: US9598423B2 (BRISTOL-MYERS SQUIBB COMPANY, priority 2013, dated 2017)
pIC50: −log10 of the molar value.

Legend:
CK1δ = CK1δ (Homo sapiens (Human), UniProt P48730); test: CK1δ kinase assay (Caliper LABCHIP electrophoretic separation of fluoresceinated peptide substrate and product); type: biochemical; conditions: 200 pM CK1δ, 50 μM ATP, 1.5 μM peptide substrate, 22 hours at room temperature; read-out: CK1δ (IC50)
Procedure: (§1) CK1ε and CK1δ Kinase Assays
(§2) The kinase assay was performed in V-bottom 384-well plates. […] The reaction was incubated at room temperature for 22 hours and terminated by adding 45 μl of 35 mM EDTA to each sample. The reaction mixture was analyzed on the Caliper LABCHIP®3000 (Caliper, Hopkinton, Mass.) by electrophoretic separation of the unphosphorylated substrate and phosphorylated product. […] Compounds were dissolved at 10 mM in dimethylsulfoxide (DMSO) and evaluated at eleven concentrations. IC50 values were derived by non-linear regression analysis.

CK1ε = CK1ε (Homo sapiens (Human), UniProt P49674); test: CK1ε kinase assay (Caliper LABCHIP electrophoretic separation of fluoresceinated peptide substrate and product); type: biochemical; conditions: 200 pM CK1ε, 50 μM ATP, 1.5 μM peptide substrate, 22 hours at room temperature; read-out: CK1ε (IC50)
Procedure: as §1, §2

Chain of CK1δ (P48730 whole entry): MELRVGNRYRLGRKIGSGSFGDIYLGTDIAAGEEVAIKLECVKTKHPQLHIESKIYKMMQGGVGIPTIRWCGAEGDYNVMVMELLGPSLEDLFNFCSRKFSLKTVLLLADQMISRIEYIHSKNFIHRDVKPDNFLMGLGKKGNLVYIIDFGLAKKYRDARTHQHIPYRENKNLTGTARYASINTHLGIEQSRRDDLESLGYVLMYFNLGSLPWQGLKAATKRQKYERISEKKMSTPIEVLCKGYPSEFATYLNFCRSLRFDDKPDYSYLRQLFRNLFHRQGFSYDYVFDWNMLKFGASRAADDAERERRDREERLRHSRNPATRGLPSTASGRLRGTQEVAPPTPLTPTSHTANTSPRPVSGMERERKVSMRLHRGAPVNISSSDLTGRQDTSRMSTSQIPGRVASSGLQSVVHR
Chain of CK1ε (P49674 whole entry): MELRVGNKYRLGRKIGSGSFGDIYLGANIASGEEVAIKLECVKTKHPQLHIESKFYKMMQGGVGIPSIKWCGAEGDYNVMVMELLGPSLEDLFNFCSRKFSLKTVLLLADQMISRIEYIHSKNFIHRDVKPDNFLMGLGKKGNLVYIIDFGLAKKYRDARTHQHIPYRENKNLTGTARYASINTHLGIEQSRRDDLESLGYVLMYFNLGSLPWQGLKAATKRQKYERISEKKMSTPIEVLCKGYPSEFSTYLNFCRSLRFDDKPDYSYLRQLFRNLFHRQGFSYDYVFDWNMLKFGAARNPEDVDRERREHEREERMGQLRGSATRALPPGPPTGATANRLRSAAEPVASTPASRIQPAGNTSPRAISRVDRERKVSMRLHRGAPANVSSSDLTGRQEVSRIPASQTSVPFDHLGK

SMILES	pIC50 (CK1δ)	pIC50 (CK1ε)
Cc1ccc(-c2nn3c(c2C(N)=O)CN(C(=O)Nc2ccc(C#N)c(C)c2)CC3)cc1Cl [Compound 249, 2-(3-Chloro-4-methylphenyl)-N^5-(4-cyano-3-methylphenyl)-6,7-dihydropyrazolo[1,5-a]pyrazine-3,5(4H)-dicarboxamide]	8.00 to 11.00	8.00 to 11.00
N#Cc1ccc(NC(=O)N2Cc3c(C(N)=O)c(-c4ccc(F)c(Cl)c4)nn3[C@H](C(F)F)C2)cc1F [Compound A22, (S)-2-(3-Chloro-4-fluorophenyl)-N^5-(4-cyano-3-fluorophenyl)-7-(difluoromethyl)-6,7-dihydropyrazolo[1,5-a]pyrazine-3,5(4H)-dicarboxamide]	8.00 to 11.00	8.00 to 11.00
Cn1ncc2cc(-c3nn4c(c3C(N)=O)CN(C(=O)Nc3ccc(C#N)cc3)CC4)cc(Cl)c21 [Compound 318, 2-(7-Chloro-1-methyl-1H-indazol-5-yl)-N^5-(4-cyanophenyl)-6,7-dihydropyrazolo[1,5-a]pyrazine-3,5(4H)-dicarboxamide]	8.00 to 11.00	8.00 to 11.00
NC(=O)c1c(-c2cccc(F)c2)nn2c1CN(C(=O)Nc1cccc(C(F)(F)F)c1)CC2 [Compound 50, 2-(3-Fluorophenyl)-N^5-(3-(trifluoromethyl)phenyl)-6,7-dihydropyrazolo[1,5-a]pyrazine-3,5(4H)-dicarboxamide]	8.00 to 11.00	8.00 to 11.00
CC(C)(C)NC(=O)N1CCn2nc(-c3cc(Cl)cc(Cl)c3)c(C(N)=O)c2C1 [Compound 117, N^5-(tert-Butyl)-2-(3,5-dichlorophenyl)-6,7-dihydropyrazolo[1,5-a]pyrazine-3,5(4H)-dicarboxamide]	8.00 to 11.00	8.00 to 11.00
N#Cc1ccc(NC(=O)N2CCn3nc(-c4ccc(F)c(Cl)c4)c(C(N)=O)c3C2)cc1C(F)(F)F [Compound 204, 2-(3-Chloro-4-fluorophenyl)-N^5-(4-cyano-3-(trifluoromethyl)phenyl)-6,7-dihydropyrazolo[1,5-a] pyrazine-3,5(4H)-dicarboxamide]	8.00 to 11.00	8.00 to 11.00
NC(=O)c1c(-c2cccc(F)c2)nn2c1CN(C(=O)Nc1ccc3ccccc3c1)CC2 [Compound 59, 2-(3-Fluorophenyl)-N^5-(naphthalen-2-yl)-6,7-dihydropyrazolo[1,5-a]pyrazine-3,5(4H)-dicarboxamide]	8.00 to 11.00	8.00 to 11.00
CC(C)(C)NC(=O)N1CCn2nc(-c3ccc(Cl)c(Cl)c3)c(C(N)=O)c2C1 [Compound 129, N^5-(tert-Butyl)-2-(3,4-dichlorophenyl)-6,7-dihydropyrazolo[1,5-a]pyrazine-3,5(4H)-dicarboxamide]	8.00 to 11.00	8.00 to 11.00
N#Cc1ccc(NC(=O)N2CCn3nc(-c4cc(Cl)ccc4Cl)c(C(N)=O)c3C2)cc1 [Compound 272, N^5-(4-Cyanophenyl)-2-(2,5-dichlorophenyl)-6,7-dihydropyrazolo[1,5-a] pyrazine-3,5(4H)-dicarboxamide]	8.00 to 11.00	8.00 to 11.00
NC(=O)c1c(-c2cc(Cl)cc(Cl)c2)nn2c1CN(C(=O)Nc1ccc(Cl)c(Cl)c1)CC2 [Compound 302, N^5-(3,4-Dichlorophenyl)-2-(3,5-dichlorophenyl)-6,7-dihydropyrazolo[1,5-a] pyrazine-3,5(4H)-dicarboxamide]	8.00 to 11.00	8.00 to 11.00
N#Cc1ccc(NC(=O)N2Cc3c(C(N)=O)c(-c4ccc(F)c(Cl)c4)nn3CC2C2CC2)cc1 (single isomer, unassigned) [Compound 342]	8.00 to 11.00	8.00 to 11.00
NC(=O)c1c(-c2cc(F)cc(Cl)c2)nn2c1CN(C(=O)Nc1cc(Cl)cc(Cl)c1)CC2 [Compound 216, 2-(3-Chloro-5-fluorophenyl)-N^5-(3,5-dichlorophenyl)-6,7-dihydropyrazolo[1,5-a] pyrazine-3,5(4H)-dicarboxamide]	8.00 to 11.00	8.00 to 11.00
N#Cc1ccc(NC(=O)N2CCn3nc(-c4ccc5c(c4)OCO5)c(C(N)=O)c3C2)cc1 [Compound 277, 2-(Benzo[d][1,3]dioxol-5-yl)-N^5-(4-cyanophenyl)-6,7-dihydropyrazolo[1,5-a] pyrazine-3,5(4H)-dicarboxamide]	7.00 to 8.00	8.00 to 11.00
Cc1n[nH]c2c(Cl)cc(-c3nn4c(c3C(N)=O)CN(C(=O)Nc3ccc(C#N)c(Cl)c3)CC4)cc12 [compound 321]	8.00 to 11.00	8.00 to 11.00
CC(C)(C)NC(=O)N1CCn2nc(-c3cncc(F)c3)c(C(N)=O)c2C1 [Compound 113, N^5-(tert-Butyl)-2-(5-fluoropyridin-3-yl)-6,7-dihydropyrazolo[1,5-a]pyrazine-3,5(4H)-dicarboxamide]	7.00 to 8.00	5.70 to 7.00
Cc1nn(C)c2c(Cl)cc(-c3nn4c(c3C(N)=O)CN(C(=O)Nc3ccc(C#N)cc3)CC4)cc12 [Compound 322, 2-(7-Chloro-1,3-dimethyl-1H-indazol-5-yl)-N-(4-cyanophenyl)-6,7-dihydropyrazolo[1,5-a]pyrazine-3,5(4H)-dicarboxamide]	8.00 to 11.00	8.00 to 11.00
NC(=O)c1c(-c2ccc(F)c(Cl)c2)nn2c1CN(C(=O)Nc1ccc(F)c(Cl)c1)CC2 [Compound 185, N^5,2-Bis(3-chloro-4-fluorophenyl)-6,7-dihydropyrazolo[1,5-a] pyrazine-3,5(4H)-dicarboxamide]	8.00 to 11.00	8.00 to 11.00
CC1CN(C(=O)Nc2ccc(C#N)cc2)Cc2c(C(N)=O)c(-c3cccc(F)c3)nn21 (single isomer, unassigned) [Compound A79, N^5-(4-Cyanophenyl)-2-(3-fluorophenyl)-7-methyl-6,7-dihydropyrazolo[1,5-a]pyrazine-3,5(4H)-dicarboxamide]	5.70 to 7.00	5.70 to 7.00
NC(=O)c1c(-c2ccc(Cl)c(Cl)c2)nn2c1CN(C(=O)Nc1cc(Cl)cc(Cl)c1)CC2 [Compound 206]	8.00 to 11.00	8.00 to 11.00
COc1cc(F)cc(-c2nn3c(c2C(N)=O)CN(C(=O)Nc2ccc(C#N)cc2)CC3)c1 [Compound 285, N^5-(4-Cyanophenyl)-2-(3-fluoro-5-methoxyphenyl)-6,7-dihydropyrazolo[1,5-a] pyrazine-3,5(4H)-dicarboxamide]	8.00 to 11.00	8.00 to 11.00
NC(=O)c1c(-c2ccc(F)c(Cl)c2)nn2c1CN(C(=O)Nc1ccc(C(F)(F)F)c(Cl)c1)CC2 [Compound 176, N^5-(3-Chloro-4-(trifluoromethyl)phenyl)-2-(3-chloro-4-fluorophenyl)-6,7-dihydropyrazolo[1,5-a] pyrazine-3,5(4H)-dicarboxamide]	8.00 to 11.00	8.00 to 11.00
N#Cc1ccc(NC(=O)N2CCn3nc(-c4ccc(F)c(F)c4)c(C(N)=O)c3C2)cc1 [Compound 291, N^5-(4-Cyanophenyl)-2-(3,4-difluorophenyl)-6,7-dihydropyrazolo[1,5-a] pyrazine-3,5(4H)-dicarboxamide]	8.00 to 11.00	8.00 to 11.00
Cc1cc(F)cc(-c2nn3c(c2C(N)=O)CN(C(=O)Nc2ccc4ncsc4c2)CC3)c1 [Compound 225, N^5-(Benzo[d]thiazol-6-yl)-2-(3-fluoro-5-methylphenyl)-6,7-dihydropyrazolo[1,5-a] pyrazine-3,5(4H)-dicarboxamide]	8.00 to 11.00	8.00 to 11.00
